Source: patent US11771685B2, “Compounds for the treatment of neurological or mitochondrial diseases” (MUSC FOUNDATION FOR RESEARCH DEVELOPMENT, priority 2018, dated 2023)

Columns and labels:
HT22 cells = assay: HT22 oxytosis (glutamate-induced cell death) neuroprotection assay; assay type: cell-based, mouse; details: 10 mM Glu; for EC50: Mus musculus
Procedure: The HT22 murine hippocampal cell system was chosen as an initial phenotypic screen for neuroprotective efficacy (Andreux et al., 2013; Andreux et al., 2014; Ohlow et al., 2017; Schubert and Maher, 2012). HT22 cells exposed to high extracellular Glu ([…]) undergo oxytosis, a non-apoptotic programmed cell death involving glutathione (GSH) depletion followed by ROS accumulation, oxidative damage, and a cytotoxic signaling cascade (Tan et al., 2001). Glu blocks the −xC cystine antiporter, causing (Tan et al., 2001) cells to accumulate severe oxidative stress, mitochondrial depolarization, disrupted mitochondrial morphology, and Ca^2+ influx (Tan et al., 2001; Yang et al., 2011; Cheng et al., 2013—cellular events that may occur in neurological diseases, including epilepsy. Thus, the immortalized HT22 cell line is a well-established model of neuronal oxidative stress (Sagara and Schubert, 1998; Matsumoto et al., 1996; Albrecht et al., 2010; Ha and Park, 2006; van Leyen et al., 2005; Tobaben et al., 2011), and a verified model of neurodegeneration to screen for potential neuroprotective drugs (Albrecht et al., 2010; van Leyen et al., 2008; Lewerenz et al., 2009; Lewerenz et al., 2003).
Consistent with that work, most of the 2-amino compounds achieved protection of HT22 cells against glutamate-induced oxytosis in the nM to μM range. […] Neuroprotection based on relative cell viability compared to +Glu and −Glu control cells was measured.
The HT22 neuronal cell line is a subclone of HT4, derived from the mouse hippocampus (Morimoto and Koshland, 1990). […] The HT22 cells used in this study were kindly provided by Dr. David Schubert (The Salk Institute for Biological Studies, La Jolla, CA, USA). The cells were grown in Dulbecco's Modified Eagle's Medium (DMEM/high glucose) supplemented with 10% fetal bovine serum (Hyclone) and 5 mL of antibiotic-antimycotic (Amphotericin B, Penicillin, and Streptomycin; Invitrogen) at 37° C. in 5% CO2.
HT-22 cells were seeded onto 96-well plates at 2.5×10^3 cells per well in 75 μL of medium and maintained at 37° C. in 5% CO2 overnight prior to the initiation of experimental treatments. For glutamate toxicity testing, cells were subsequently treated with 25 μL of medium containing glutamate (monosodium glutamate, Sigma, 1 M stock concentration in media, to achieve a final concentration of 10 mM) plus compound (stock in DMSO) and maintained at 37° C. in 5% CO2 for 24 hr. CellTiter-Blue® (resazurin cell viability assay reagent) was then added to each well at a final concentration of 0.125 mg/mL. The mixture was allowed to incubate for 2-4 hr until sufficient color change occurred. Cell viability was measured as a function of resorufin fluorescence intensity using a Tecan M200 Pro spectrophotometer, 560 nm/590 nm (excitation/emission). Cell viability was calculated as a percentage compared with untreated controls. EC50s were determined using GraphPad Prism's “log(inhibitor) vs. normalized response-Variable slope” function. Morphology of HT22 cells following treatments was determined by phase-contrast microscopy.
(§1) Statistical analyses were performed with GraphPad Prism 6 software. For the in vitro HT22 oxytosis assay, dose-response data were fit using GraphPad Prism's log(inhibitor) vs normalized response-variable slope parameters to determine EC50 values and 95% confidence intervals. For the zebrafish locomotive anti-seizure activity data, multiple comparisons were made using a one-way analysis of variance (ANOVA) with a Kruskal-Wallis Test, followed by the Dunn's Method to determine significant differences between all pairs or between control and experimental groups using the Dunn Method for Joint Ranking. Differences were considered statistically significant when p<0.05. Data from zebrafish experiments are represented as scatter dot plots of individual measurements, with means±standard deviation indicated by bars.

Zebrafish larvae = assay: In vivo toxicology in zebrafish larvae; details: for concentration lethal/toxic at 24 hr / overt toxicity observation: 7 dpf larvae; for overt toxicity observation: 5-20 μM, observed 1, 5 and 24 hr
Procedure: Zebrafish larvae, 7 days post-fertilization (dpf), were exposed to compounds at 20, 15, 10, and 5 μM, six larvae per compound. Animals were observed 1, 5, and 24 hr after dosing for overt toxicity (altered survival, morbidity, morphological deformity). Heart rate, behavior, and startle response were monitored at each time point.
Zebrafish (AB strain) were obtained from the Zebrafish International Resource Center (supported by P40 RR012546 from NIH—NCRR). Zebrafish were maintained and crossed according to standard methods (Westerfield, 2000). Fertilized eggs were collected and placed in E3 embryo medium and positioned in an incubator set at 28.5° C. with a 14/10-hr light/dark cycle (Kimmel et al., 1995). To determine the lethal dose of each compound, 96-well plates containing one zebrafish (7 days post-fertilization, dpf) per well in 100 μL of tank water were used. 100 μL of each compound (0.5-15 μM) was added to each well for 12 animals (one row) for a final volume of 200 μL. One row of larvae was used as dimethyl sulfoxide (DMSO)-only controls. […] All zebrafish studies were approved by the Medical University of South Carolina Institutional Animal Care and Use Committee (#180278) and performed in accordance with the guidelines.
Using a 96-well plate, 7 dpf zebrafish were placed one per well with 100 μL of tank water. 100 μL of each compound was then added to each well for 12 animals (one row) for a final volume of 200 μL. One row of zebrafish larvae was used as DMSO only controls.

[1] = tested on: PTZ-induced seizure activity in zebrafish larvae; assay: Zebrafish PTZ-induced seizure model; assay type: in vivo; details: Danio rerio; for minimal effective concentration: 7 dpf larvae, 1 hr pre-treatment, 10 mM PTZ, read-out: Anti-seizure activity: lowest tested dose with significant difference vs PTZ-only group
Procedure: The zebrafish PTZ-induced seizure model was used to determine the most promising compounds' in vivo efficacy. Zebrafish larvae (7 dpf) were treated with the compound for 1 hr prior to inducing seizures with PTZ. As established by previous larval zebrafish anti-seizure studies (Rahn et al., 2014; Hansen et al., 2004; Baraban et al., 2005), total distance traveled by each fish after seizure induction was measured and used as a proxy for seizure activity. Following collection of locomotor data, observation of a startle response and visual inspection for abnormal morphology confirmed that alterations in swim activity were not caused by compound toxicity.
We induced seizures in 7 dpf zebrafish larvae by the addition of […] PTZ as originally developed by Baraban et al., 2005. In a 48-well plate, one 7-dpf zebrafish was added per well. Larvae were dosed with each compound at a sub-lethal dose 1 hr prior to PTZ treatment. Two control rows were included with each experiment—tank water only control and PTZ only. Seizures were induced by adding PTZ to wells to yield a final concentration of 10 mM. After 5 min, the plate was transferred to the Daniovision instrument (Noldus Information Technology) and the chamber light was turned on. After 2 min, MediaRecorder (Noldus) was used to record video for 15 min. A small number of videos were acquired at 25 frames per second, but the majority of data were acquired at 60 frames per second. […] Ethovision XT software (Noldus) was used to track the fish movement from the video images in order to calculate the total distance traveled over 15 min. All experimental comparisons were made between animals from the same clutch.
as §1

[2] = HT-22, 24 h, HT22 cells, 24 hr, 95% CI in parentheses
[3] = read-out: reduction of PTZ-induced locomotor activity

| Compound | EC50 (HT22 cells; [2]) [nM] | minimal effective concentration [1] [µM] | EC50 (HT22 cells; HT-22, HT22 cells) [nM] | overt toxicity observation (Zebrafish larvae) | further results |
| --- | --- | --- | --- | --- | --- |
| CC#CCNC1=CC(=O)c2ccccc2C1=O [Compound 2, 2-(But-2-yn-1-ylamino)naphthalene-1,4-dione] | 1220 | > 20 | – | – | fish dead (Zebrafish larvae; 5 μM, 24 hr): ⅚; concentration lethal/toxic at 24 hr (Zebrafish larvae; 24 hr): ≥ 10 µM; inhibition in vivo at 40 µM ([1]; 40 μM, read-out: reduction of PTZ-induced locomotor activity): 89% |
| CCCC#CCNC1=CC(=O)c2ccccc2C1=O [Compound 4, 2-(Hex-2-yn-1-ylamino)naphthalene-1,4-dione] | 989 | > 20 | – | – | fish dead (Zebrafish larvae; 10 μM, 24 hr): ⅙; inhibition in vivo at 10 µM [1, 3]: ~80%; inhibition in vivo at 20 µM ([1]; 20 μM, read-out: reduction of PTZ-induced locomotor activity): ~80% |
| CCCCC#CCNC1=CC(=O)c2ccccc2C1=O [Compound 5, 2-(Hept-2-yn-1-ylamino)naphthalene-1,4-dione] | 1570 | ≤ 5 | – | – | concentration lethal/toxic at 24 hr (Zebrafish larvae; 24 hr): 20 µM; inhibition in vivo at 5 µM ([1]; 5 μM, read-out: reduction of PTZ-induced locomotor activity): 84%; inhibition in vivo at 10 µM [1, 3]: 77% |
| CC#CCCNC1=CC(=O)c2ccccc2C1=O [Compound 15, 2-(Pent-3-yn-1-ylamino)naphthalene-1,4-dione] | 2910 | – | > 2000 | acutely lethal to most fish at the lowest concentration after 1 hr | – |
| CCC#CCCNC1=CC(=O)c2ccccc2C1=O [Compound 16, 2-(Hex-3-yn-1-ylamino)naphthalene-1,4-dione] | 5600 | – | > 2000 | acutely lethal to most fish at the lowest concentration after 1 hr | – |
| C#CC(C)NC1=CC(=O)c2ccccc2C1=O (racemic) [Compound 19, Rac-2-(but-3-yn-2-ylamino)naphthalene-1,4-dione] | 2140 | > 10 | ~1500 | – | fish dead (Zebrafish larvae; 10 μM, 5 hr): ⅙; toxic concentration (Zebrafish larvae; AB, zebrafish, in vivo, 5 hr): ≥ 10 µM |
| CN(C)CC#CCNC1=CC(=O)c2ccccc2C1=O [Compound 7, 2-((4-(Dimethylamino)but-2-yn-1-yl)amino)naphthalene-1,4-dione] | – | – | – | lethal at most concentrations | HT22 protection (HT22 cells; HT22 cells): poor protection |
| CS(=O)(=O)Nc1cccc(C#CCNC2=CC(=O)c3ccccc3C2=O)c1 [Compound 14, N-(3-(3-((1,4-dioxo-1,4-dihydronaphthalen-2-yl)amino)prop-1-yn-1-yl)phenyl)methanesulfonamide] | 1940 | – | ~2000 | – | concentration lethal to all fish (Zebrafish larvae; after 5 hr): 10 µM |
